One data set addresses T1, CDK1/cyclin B (Homo sapiens, UniProt P06493).
T1 construct: His; made in house; host or cells: Sf9 insect cells (baculovirus)
Nature of the data set: CDK1/cyclin B kinase assay (GST-Rb phosphorylation). Type of data set: biochemical. The following applies: Table 1.

A further data set relates to AGS. The data set is described as follows: 72-h MTT cytotoxicity assay, AGS. Type of data set: cell-based. The following applies: Homo sapiens, read-out: 72-h Cytotoxicity IC 50 AGS, Table 3, 72-h MTT. As for the experimental part:
(§1) Selected compounds from the above examples were subjected to a standard cellular proliferation assay using a range of different human tumour cell lines. Standard 72-h MTT (thiazolyl blue; 3-{4,5-dimethylthiazol-2-yl}-2,5-diphenyltetrazolium bromide) assays were performed (Haselsberger, K.; Peterson, D. C.; Thomas, D. G.; Darling, J. L. Anti Cancer Drugs 1996, 7, 331-8; Loveland, B. E.; Johns, T. G.; Mackay, I. R.; Vaillant, F.; Wang, Z. X.; Hertzog, P. J. Biochemistry International 1992, 27, 501-10). Human tumour cell lines were obtained from the ATCC (American Type Culture Collection, 10801 University Boulevard, Manessas, Va. 20110-2209, USA).

For the next data set, the system named is MCF-7. Nature of the data set: 72-h MTT cytotoxicity assay, MCF-7. Type of data set: cell-based. The following applies: Homo sapiens, MCF7, read-out: 72-h Cytotoxicity IC 50 MCF-7; Table 3, 72-h MTT. Here is the method: as §1
In another data set the target is SAPK2a (Homo sapiens, UniProt Q16539). The data set is described as follows: SAPK2a kinase assay (kinase panel). Type of data set: biochemical. Particulars: Table 1.
A further data set concerns HeLa. The data set is described as follows: 72-h MTT cytotoxicity assay, HeLa. Format: cell-based. Particulars: Homo sapiens, read-out: 72-h Cytotoxicity IC 50 HeLa, Table 3, 72-h MTT. Here is the method:
as §1

The target of another data set is S6. The data set is described as follows: S6 kinase assay (kinase panel). Format: biochemical. Particulars: Table 1.
A further data set has as its target T2, PKCa (Homo sapiens, UniProt P17252).
T2 construct: 6×His (C); made in house; host or cells: Sf9 insect cells (baculovirus)
The data set is described as follows: PKCα kinase assay (Histone 3 phosphorylation). Type of data set: biochemical. The following applies: Table 1. As for the experimental part:
PKCα kinase activity may be measured by the incorporation of radio-labeled phosphate in Histone 3, as described. The reaction mixture (total volume 65 μl) consist of 50 mM Tris-HCl, 1 mM Calcium acetate, 3 mM DTT, 0.03 mg/ml Phosphatidylserine, 2.4 μg/ml PMA, 0.04% NP40, 12 mM Mg/Cl, purified PKCα-100 ng, Histone 3, 0.2 mg/ml, 100 μM ATP, 0.2 μCi {γ-^32P}-ATP. The reaction is carried over 15 min at 37° C. in microplate shaker and is stopped by adding 10 μl 75 mM orthophosphoric acid and placing the plate on ice. 50 μl of the reaction mixture is transferred onto P81 filterplate and after washing off the free radioactive phosphate (3 times with 200 μl 75 mM orthophosphoric acid per well) 50 μl of scintillation liquid (Microscint 40) were added to each well and the radioactivity is measured on Scintillation counter (Topcount, HP).

The test system of the next data set is DU145. Nature of the data set: 72-h MTT cytotoxicity assay, DU145. Format: cell-based. Particulars: Homo sapiens, DU-145, read-out: 72-h Cytotoxicity IC 50 DU145; Table 3, 72-h MTT. Here is the method:
as §1

A further data set concerns A549. Nature of the data set: 72-h MTT cytotoxicity assay, A549. Type of data set: cell-based, human. The following applies: Homo sapiens. Put shortly:
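Human tumour cell lines exposed to compounds in a standard 72-h MTT proliferation assay.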

The target of another data set is ERK-2 (Homo sapiens, UniProt P28482). Nature of the data set: ERK-2 kinase assay (kinase panel). Format: biochemical. The following applies: Table 1.
Another data set relates to Saos-2. The data set is described as follows: 72-h MTT cytotoxicity assay, Saos-2. Particulars: Homo sapiens, SAOS-2, read-out: 72-h Cytotoxicity IC 50 Saos-2; Table 3, 72-h MTT. Type of data set: cell-based. Here is the method:
as §1

The target in another data set is T3, CDK2/cyclin E (Homo sapiens, UniProt P24941).
T3 construct: His; made in house; host or cells: Sf9 insect cells (baculovirus)
The data set is described as follows: CDK2/cyclin E kinase assay (GST-Rb phosphorylation).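 Also: enzyme source: His-tagged CDK2/cyclin E co-expressed in Sf9 insect cells via baculovirus, then purified by metal-chelate chromatography.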 Type of data set: biochemical.

Data set [1] concerns Human osteosarcoma tumour cells (Saos-2). Nature of the data set: Mitotic arrest and apoptosis by phase-contrast microscopy. Format: cell-based. The following applies: Saos-2 cells, 1 μM, 48 h. Here is the method:
Human osteosarcoma tumour cells (Saos-2) were treated with 1 μM of compound 28 for 48 h. […] Compound 28-induced accumulation of mitotic cells was further quantified using mitotic index HitKit (Cellomix).

In data set [2] the test system is Human lung carcinoma cells (A549). The data set is described as follows: Induction of programmed cell death (cytoplasmic vacuolation). Type of data set: cell-based. The following applies: 10 μM, 16 h. As for the experimental part: In addition to the induction of apoptosis some of the compounds of the invention are capable of inducing forms of programmed cell death that is distinct from apoptosis by the criteria of morphology. Human lung carcinoma cells (A549) were treated for 16 h with 10 μM compound 28.

The test system of a further data set is A549 cells. Nature of the data set: Mitotic index HitKit (Cellomix). Format: cell-based, human. The following applies: at a concentration of 4.4 μM, untreated wells […], toxicity above this concentration. The source says: The effect of compound 28 on the mitotic index was studied using mitotic index HitKit (Cellomix). Vinblastine was used as control in the experiments.
Above this concentration a decrease in the number of mitotic cells is observed which correlates with a decrease in the total number of cells.

The subject of the next data set is human tumour cell lines. The data set is described as follows: Cell-based assays (anti-proliferative).
Description: These assays including methods for their performance are described in more detail in Example 23. Using such cell line and enzymes assays it may be determined whether a compound is anti-proliferative in the context of the present invention.
as §1

The target in a further data set is CDK4/cyclin D1 (Homo sapiens, UniProt P11802). Nature of the data set: biochemical.
The mark [3] stands for this setting: A549, 72 h, read-out: 72-h Cytotoxicity IC 50 A549, Table 3, 72-h MTT.
The mark [4] stands for this setting: Table 4, additional data for cytotoxicity assay using the A549 cell line, read-out: A549.

“Also recorded” adds a separate entry of the source. Where two headings read alike, the source gives them in different places.

Sequence of SAPK2a (Q16539 whole entry, species assumed): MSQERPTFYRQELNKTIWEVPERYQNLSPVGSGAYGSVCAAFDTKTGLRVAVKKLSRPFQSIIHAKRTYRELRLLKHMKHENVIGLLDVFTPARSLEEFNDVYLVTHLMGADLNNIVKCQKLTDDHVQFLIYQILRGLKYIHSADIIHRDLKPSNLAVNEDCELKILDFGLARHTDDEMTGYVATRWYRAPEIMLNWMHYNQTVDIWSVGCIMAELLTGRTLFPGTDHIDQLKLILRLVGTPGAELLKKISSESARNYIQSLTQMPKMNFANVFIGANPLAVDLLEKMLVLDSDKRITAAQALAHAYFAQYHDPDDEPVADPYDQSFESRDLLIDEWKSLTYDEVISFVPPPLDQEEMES
Sequence of ERK-2 (P28482 whole entry, species assumed): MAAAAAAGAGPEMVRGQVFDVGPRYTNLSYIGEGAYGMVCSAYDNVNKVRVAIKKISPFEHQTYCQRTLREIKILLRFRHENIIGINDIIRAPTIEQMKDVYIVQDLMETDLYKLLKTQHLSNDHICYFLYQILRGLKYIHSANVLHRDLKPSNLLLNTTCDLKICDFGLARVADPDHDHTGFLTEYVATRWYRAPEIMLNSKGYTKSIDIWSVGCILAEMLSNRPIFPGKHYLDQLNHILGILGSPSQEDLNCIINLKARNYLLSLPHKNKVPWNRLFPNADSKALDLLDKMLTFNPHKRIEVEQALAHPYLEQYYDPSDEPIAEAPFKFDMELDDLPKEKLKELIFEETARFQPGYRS
T1 sequence (P06493 whole entry, species assumed): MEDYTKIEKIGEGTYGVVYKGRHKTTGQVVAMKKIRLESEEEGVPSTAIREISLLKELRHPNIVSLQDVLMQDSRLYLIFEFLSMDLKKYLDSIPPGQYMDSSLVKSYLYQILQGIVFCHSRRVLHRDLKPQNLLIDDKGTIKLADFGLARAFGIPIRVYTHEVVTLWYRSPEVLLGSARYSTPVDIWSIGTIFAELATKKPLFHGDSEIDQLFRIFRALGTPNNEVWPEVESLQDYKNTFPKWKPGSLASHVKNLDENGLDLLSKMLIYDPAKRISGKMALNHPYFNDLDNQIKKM
T1 sequence (P14635 whole entry partner, species assumed): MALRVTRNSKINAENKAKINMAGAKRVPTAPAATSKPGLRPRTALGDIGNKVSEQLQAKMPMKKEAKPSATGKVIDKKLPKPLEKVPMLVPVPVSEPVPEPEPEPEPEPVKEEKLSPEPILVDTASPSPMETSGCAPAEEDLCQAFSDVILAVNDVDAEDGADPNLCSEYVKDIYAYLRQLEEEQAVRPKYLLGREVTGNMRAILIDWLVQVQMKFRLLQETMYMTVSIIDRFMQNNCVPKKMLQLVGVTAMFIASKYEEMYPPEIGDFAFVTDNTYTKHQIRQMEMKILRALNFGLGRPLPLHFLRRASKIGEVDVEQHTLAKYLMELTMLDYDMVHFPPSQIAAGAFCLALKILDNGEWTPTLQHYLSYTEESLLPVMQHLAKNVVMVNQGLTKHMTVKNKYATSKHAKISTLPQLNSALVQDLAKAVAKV
Sequence of CDK4/cyclin D1 (P11802 whole entry, species assumed): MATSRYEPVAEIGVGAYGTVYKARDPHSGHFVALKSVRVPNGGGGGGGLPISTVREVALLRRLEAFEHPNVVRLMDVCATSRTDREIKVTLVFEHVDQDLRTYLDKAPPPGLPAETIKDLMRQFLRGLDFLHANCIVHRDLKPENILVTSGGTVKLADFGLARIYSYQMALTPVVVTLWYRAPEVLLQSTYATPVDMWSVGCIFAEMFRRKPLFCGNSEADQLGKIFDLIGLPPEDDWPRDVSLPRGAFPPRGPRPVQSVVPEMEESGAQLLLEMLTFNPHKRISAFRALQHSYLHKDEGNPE
Sequence of CDK4/cyclin D1 (P24385 whole entry partner, species assumed): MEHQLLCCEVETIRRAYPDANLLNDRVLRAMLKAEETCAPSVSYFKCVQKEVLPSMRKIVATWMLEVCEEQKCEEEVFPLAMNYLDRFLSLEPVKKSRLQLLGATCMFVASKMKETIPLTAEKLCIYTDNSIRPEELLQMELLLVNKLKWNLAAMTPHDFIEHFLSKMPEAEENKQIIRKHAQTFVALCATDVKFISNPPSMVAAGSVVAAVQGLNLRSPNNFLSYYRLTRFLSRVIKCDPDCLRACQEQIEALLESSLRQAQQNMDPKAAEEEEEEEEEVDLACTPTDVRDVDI

Consider `Cc1nc(C)c(-c2ccnc(Nc3cccc([N+](=O)[O-])c3)n2)s1` [Compound 12, {4-(2,4-Dimethyl-thiazol-5-yl)-pyrimidin-2-yl}-(3-nitro-phenyl)-amine], for which the IC50 at CDK1/cyclin B is 0.1 µM; in the data set on AGS, 1 ± 0.2 µM; in the data set with MCF-7, 1.7 ± 0.1 µM; on SAPK2a it was more than 20 µM; in the data set with HeLa it was 1.2 ± 0.2 µM; on S6 it was more than 20 µM. Besides, the IC50 on PKCa is more than 20 µM; in the data set on DU145, 1 ± 0.1 µM; in the data set with A549 (setting [3]), 1.5 ± 0.3 µM; with A549 (setting [4]) it was 0.2 µM; on ERK-2 it was more than 20 µM; in the data set with Saos-2, 1.4 ± 0.3 µM.
Take `Cc1nc(C)c(-c2ccnc(Nc3ccc(Br)cc3)n2)s1` [Compound 31, (4-Bromo-phenyl)-{4-(2,4-dimethyl-thiazol-5-yl)-pyrimidin-2-yl}-amine]: the melting point fell in the range of 173 to 175 °C. Besides, at CDK2/cyclin E (Table 2, further results for CDK2/cyclin E inhibition, read-out: CDK2/cyclin E), the IC50 turned out to be 0.2 µM. Besides, the IC50 with A549 (setting [4]) is 0.3 ± 0.05 µM.
Take `Cc1nc(C)c(-c2ccnc(Nc3ccc(C(F)(F)F)cc3)n2)s1` [Compound 28, {4-(2,4-Dimethyl-thiazol-5-yl)-pyrimidin-2-yl}-(4-trifluoromethyl-phenyl)-amine]: the “mitotic arrest and induction of apoptosis” value in data set [1] was “mitotic arrest and induction of apoptosis; also recorded: accumulation of mitotic cells and appearance of apoptotic cells was observed”. In the data set on A549 (setting [4]), the IC50 is 3.5 µM. For the same compound, in [2], the “induction of programmed cell death, cytoplasmic vaculation” value was “Extensive cytoplasmic vaculation is observed”. In the data set on A549 cells, the “maximum percentage of mitotic cells” value is 17%.
For the compound `Cc1nc(C)c(-c2ccnc(Nc3ccc(I)cc3)n2)s1` [Compound 34, {4-(2,4-Dimethyl-thiazol-5-yl)-pyrimidin-2-yl}-(4-iodo-phenyl)-amine], the “anti-proliferative effect (in words)” value in the data set with human tumour cell lines is reported as “even more effective anti-proliferative agent”. Moreover, the IC50 with A549 (setting [4]) is 0.02 µM.
Regarding `Cc1nc(C)c(-c2ccnc(Nc3ccc(Cl)cc3)n2)s1` [Compound 6, (4-Chloro-phenyl)-{4-(2,4-dimethyl-thiazol-5-yl)-pyrimidin-2-yl}-amine], the IC50 on CDK2/cyclin E (CDK2/cyclin E, Table 2, further results for CDK2/cyclin E inhibition) was 5 ± 9 µM; at CDK2/cyclin E (Kinase assay IC50 CDK2/cyclin E, Table 1) it was 9 ± 12 µM; against CDK1/cyclin B, more than 20 µM; at SAPK2a, more than 20 µM; at S6, more than 20 µM; against PKCa it was more than 20 µM. Also, the IC50 against ERK-2 is more than 20 µM; on CDK4/cyclin D1 it was 0.5 ± 0.5 µM.
`Cc1nc(C)c(-c2ccnc(Nc3ccc(F)cc3)n2)s1` [Compound 21, {4-(2,4-Dimethyl-thiazol-5-yl)-pyrimidin-2-yl}-(4-fluoro-phenyl)-amine]: the IC50 on CDK1/cyclin B was 0.2 µM; in the data set with AGS, 4.2 ± 0.3 µM; in the data set with MCF-7, 9.9 ± 0.4 µM; against SAPK2a, more than 20 µM; in the data set on HeLa it was 3.2 ± 0.8 µM; against S6, 1 µM. Also, the IC50 against PKCa is more than 20 µM; in the data set on DU145 it was 4.3 ± 0.2 µM; in the data set on A549 (setting [3]), 5.4 ± 0.4 µM; in the data set on A549 (setting [4]), 6.3 µM; on ERK-2 it was 2.5 µM; in the data set on Saos-2, 8.5 ± 1.6 µM.
